From patent US8288379B2, “Thia-triaza-cyclopentazulenes” (Boehringer Ingelheim International GmbH, priority 2009, dated 2012)

Target: T1, FRAP1 (mTOR) kinase (Homo sapiens, UniProt P42345)
T1 construct: purchased Invitrogen PV4753
Assay: Inhibition of mTOR-induced p-4E-BP1 phosphorylation (TR-FRET mTOR Activity Kit; Invitrogen)
Format: biochemical
Details: 400 nM GFP-4E-BP1 substrate, ~150 ng/mL mTOR, one hour at room temperature
Description: Inhibition of mTOR-Induced p-4E-BP1 Phosphorylation (TR-FRET mTOR Activity Kit; Invitrogen)
• GFP-4E-BP1 substrate; Invitrogen order no. PV4759 • Lanthascreen Tb-anti-p4E-BP1 (pThr46) Antibody Kit; Invitrogen order no. PV4758 • FRAP1 (mTOR) kinase; Invitrogen order no. […] Preparation of Reagents: Note: Thaw and keep mTOR, the substrate, ATP, and the antibody on ice prior to making working dilutions. Working dilutions of these components can be kept at room temperature for short periods of time the day of use. 1. Add 2 ml of 5× Assay Buffer to 8 ml water to prepare 10 ml of 1× Assay Buffer. Note: The concentration of 1× Assay Buffer is 50 mM HEPES pH 7.5, 0.01% Polysorbate 20, 1 mM EGTA, and 10 mM MnCl2. 2. Prepare Antibody/EDTA Solution by first adding 2.75 n1 of Tb-anti p4E-BP1 Antibody to 2397 n1 of LanthaScreen™ TR-FRET Dilution Buffer. Then, add 100 n1 of 0.5 M EDTA. 3. Prepare 4× Substrate/Enzyme Solution by first adding 72 n1 of GFP-4E-BP1 (22 nM) to 926 n1 of 1× Assay Buffer. Then, add 1.6 n1 of mTOR (0.45 mg/mL). 4. Prepare ATP Solution by adding 3.2 n1 of 10 mM ATP to 1997 n1 of 1× Assay Buffer. Serial Dilution of Inhibitors (16 Point Curve): Note: It is recommended that inhibitors be serially diluted in DMSO, then diluted to a 4× working concentration with 1× Assay Buffer. The below procedure describes dilution of compounds in a 96-well format prior to transfer to a 384-well format for kinase assays. This procedure calls for dilution of the compounds in 2 adjacent columns of a 96-well plate, which upon transfer to a single column of a 384-well plate with an 8-channel pipette will align the samples in order of concentration. 1. Dispense 40 n1 of DMSO to two adjacent columns of a 96 well plate per compound (e.g. columns 1 and 2). 2. Add 10 n1 of inhibitor stock (10 mM) to the first well of the first column (A1) and mix. 3. Remove 10 n1 from A1 and transfer to the adjacent well in the next column (B1) and mix. 4. Remove 10 n1 from B1 and transfer to the next well in the first column (B2) and mix. 5. Repeat this dilution pattern through well H1 and leave the last well (H2) as DMSO only. 6. Remove 4 n1 of diluted compounds and add to 96 n1 of 1× Assay Buffer in a 96-well plate making 4× compound dilutions. Kinase Reaction: 1. Add 2.5 μl of 4× compound dilutions from the first column of the 96-well plate to every other well of column 1 of a 384-well plate with an 8-channel pipette. Repeat for columns 2 and 3. 2. Add 2.5 n1 of 4× compound dilutions from the second column of the 96-well plate to the empty wells of column 1 of the 384-well plate with an 8-channel pipette. Repeat for columns 2 and 3. Note: This procedure aligns the compound dilutions in order of concentration. 3. Add 2.5 n1 of 4× Enzyme/Substrate Solution to all columns 1-6. 4. Preincubate for 30 min. at RT (shaker). 5. Add 5 n1 of ATP Solution to all wells to start reactions. 6. Shake the assay plate on a plate shaker for 30 seconds. 7. Incubate the assay plate for one hour at room temperature (20-25° C.). Stop Step and Fluorescence Detection: 1. Add 10 n1 of Antibody/EDTA Solution to each well in columns 1-9. 2. Shake the assay plate on a plate shaker for 30 seconds. 3. Incubate the assay plate for one hour at room temperature (20-25° C.). 4. Measure the GFP (FRET) and terbium (reference) emission signals on a fluorescence plate reader (e.g. Perkin Elmer Envision). Data Analysis: 1. Calculate the emission ratio for each sample by dividing the GFP (FRET) signal by the terbium (reference) signal. 2. Plot the concentration of each compound versus the emission ratio. Determine the concentration of compound required to reach 50% of the maximum signal (IC50). Determination of IC50 values can be obtained by curve fitting (sigmoidal dose response, variable slope) using Prism software from GraphPad). Inhibition of Proliferation: CyQuant PC-3 Description: […]

T1 sequence (P42345 1360-2549 limits assumed): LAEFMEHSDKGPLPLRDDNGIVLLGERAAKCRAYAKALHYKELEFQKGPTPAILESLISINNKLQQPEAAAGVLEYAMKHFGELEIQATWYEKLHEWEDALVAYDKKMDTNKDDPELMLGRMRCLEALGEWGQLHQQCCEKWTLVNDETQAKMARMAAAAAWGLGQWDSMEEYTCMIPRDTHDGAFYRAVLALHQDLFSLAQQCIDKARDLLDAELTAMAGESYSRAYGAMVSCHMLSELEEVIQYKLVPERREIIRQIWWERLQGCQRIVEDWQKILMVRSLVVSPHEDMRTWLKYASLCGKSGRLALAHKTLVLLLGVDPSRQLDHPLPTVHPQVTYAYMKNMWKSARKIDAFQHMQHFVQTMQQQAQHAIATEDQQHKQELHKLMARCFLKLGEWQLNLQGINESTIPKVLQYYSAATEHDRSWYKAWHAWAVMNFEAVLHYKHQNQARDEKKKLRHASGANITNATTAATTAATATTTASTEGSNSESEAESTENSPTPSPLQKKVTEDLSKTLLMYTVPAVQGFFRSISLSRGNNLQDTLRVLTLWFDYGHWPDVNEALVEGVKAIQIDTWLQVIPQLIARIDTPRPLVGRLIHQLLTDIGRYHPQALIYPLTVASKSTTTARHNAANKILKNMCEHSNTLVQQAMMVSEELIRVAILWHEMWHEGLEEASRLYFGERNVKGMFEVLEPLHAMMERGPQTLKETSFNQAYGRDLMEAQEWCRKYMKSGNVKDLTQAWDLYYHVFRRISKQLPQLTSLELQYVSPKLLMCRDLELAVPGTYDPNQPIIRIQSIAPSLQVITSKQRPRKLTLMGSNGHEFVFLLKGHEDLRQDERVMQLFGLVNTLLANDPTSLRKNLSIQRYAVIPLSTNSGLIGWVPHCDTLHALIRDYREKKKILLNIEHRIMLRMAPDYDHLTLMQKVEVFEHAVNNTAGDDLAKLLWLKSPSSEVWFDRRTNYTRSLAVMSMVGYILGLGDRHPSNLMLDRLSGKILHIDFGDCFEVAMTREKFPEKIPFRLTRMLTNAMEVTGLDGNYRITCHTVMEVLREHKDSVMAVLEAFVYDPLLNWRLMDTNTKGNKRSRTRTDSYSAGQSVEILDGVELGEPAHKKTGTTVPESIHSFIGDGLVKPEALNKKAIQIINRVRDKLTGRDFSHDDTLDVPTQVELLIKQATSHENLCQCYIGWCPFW

Compound | IC50 [µM]
CC(=O)Nc1nc2c(s1)-c1c(c(C(=O)NCCCO)nn1C(C)C)CCC2 [Example E-06] | 18
CCNc1ccc(-c2nn(-c3cccnc3C)c3c2CCCc2nc(NC(=O)N(C)C)sc2-3)cn1 [Example B-141] | 0.512
Cc1ccc(-c2nn(-c3ccccc3C)c3c2CCCc2nc(NC(=O)NCCN(C)C)sc2-3)cn1 [Example D-07] | 1.28
CCNc1ccc(-c2nn(C(C)COC)c3c2CCCc2nc(NC(C)=O)sc2-3)cn1 (centres unmarked) [Example B-126] | 0.084
CNc1ccc(-c2nn(-c3cccnc3)c3c2CCCc2nc(NC(C)=O)sc2-3)cn1 [Example B-84] | 0.05
CC(=O)Nc1nc2c(s1)-c1c(c(C(=O)N(C)C)nn1C(C)C)CCC2 [Example E-02] | 16
CCOC(=O)CCCNC(=O)c1nn(C(C)C)c2c1CCCc1nc(NC(C)=O)sc1-2 [Example E-12] | 5.41
CCNc1ccc(-c2nn(-c3ccccc3Br)c3c2CCCc2nc(NC(C)=O)sc2-3)cn1 [Example B-74] | 0.168
CC(=O)Nc1nc2c(s1)-c1c(c(-c3c[nH]cn3)nn1CCN(C)C)CCC2 [Example B-110] | 0.84
CC(C)n1ncc2c1-c1scnc1CCC2 [Example C-08, 1-Isopropyl-1,4,5,6-tetrahydro-9-thia-1,2,7-triaza-cyclopent[e]azulene] | 2.44
CCNc1ccc(-c2nn(C(C)C)c3c2CCCc2nc(NC(=O)NC)sc2-3)cn1 [Example B-140] | 0.182
CCNc1ccc(-c2nn(-c3ccccc3C)c3c2CCCc2nc(N)sc2-3)cn1 [Example C-03] | 3.34
CCc1ccccc1-n1nc(-c2ccc(NC)nc2)c2c1-c1sc(NC(C)=O)nc1CCC2 [Example B-88, N-[1-(2-Ethyl-phenyl)-3-(6-methylamino-pyridin-3-yl)-1,4,5,6-tetrahydro-9-thia-1,2,7-triaza-cyclopenta[e]azulen-8-yl]-acetamide] | 0.269
CCNc1ccc(-c2nn(C(C)(C)C)c3c2CCCc2nc(NC(C)=O)sc2-3)cn1 [Example B-123] | 1.14
COCCC(=O)Nc1nc2c(s1)-c1c(c(-c3ccc(C)nc3)nn1-c1ccccc1C)CCC2 [Example E-14] | 0.698
Cn1ncc2c1-c1sc(-c3cccnc3)nc1CCC2 [Example G-02] | ≥ 20
Cc1ccccc1-n1nc(-c2ccc(N)nc2)c2c1-c1sc(NC(=O)CN)nc1CCC2 [Example B-102] | 0.032
CC(=O)Nc1nc2c(s1)-c1c(c(C(=O)N(C)CCN(C)C)nn1C(C)C)CCC2 [Example E-03] | 4.85
CC(=O)Nc1nc2c(s1)-c1c(c(-c3ccc(N)nc3)nn1CCN1CCOCC1)CCC2 [Example B-105] | 1.39
CC(=O)Nc1nc2c(s1)-c1c(c(-c3cncn3C)nn1-c1ccccc1C)CCC2 [Example B-93] | 1.11
COCC(=O)Nc1nc2c(s1)-c1c(c(-c3ccc(C)nc3)nn1-c1ccccc1C)CCC2 [Example E-13] | 0.524
CC(=O)Nc1nc2c(s1)-c1c(c(C(=O)N(C)CCO)nn1C(C)C)CCC2 [Example E-05] | ≥ 20

Compound | IC50 [µM]
COCCN(C)C(=O)c1nn(C(C)C)c2c1CCCc1nc(NC(C)=O)sc1-2 [Example E-08] | ≥ 20
CNC(=O)Nc1nc2c(s1)-c1c(c(-c3ccc(NC)nc3)nn1-c1ccccc1C)CCC2 [Example B-142, 1-Methyl-3-[3-(6-methylamino-pyridin-3-yl)-1-o-tolyl-1,4,5,6-tetrahydro-9-thia-1,2,7-triaza-cyclopent[e]azulen-8-yl]-urea] | 0.092
CC(=O)Nc1nc2c(s1)-c1c(c(-c3cncn3C)nn1-c1ccccc1)CCC2 [Example B-94] | 8.36
CC(=O)Nc1nc2c(s1)-c1c(c(-c3c[nH]c(C)n3)nn1CCN(C)C)CCC2 [Example B-119] | 1.88
CNc1ccc(-c2nn(CCN3CCOCC3)c3c2CCCc2nc(NC(=O)N(C)C)sc2-3)cn1 [Example B-98] | 0.737
CC(=O)Nc1nc2c(s1)-c1c(c(-c3ccc(C)nc3)nn1-c1cccnc1)CCC2 [Example B-95] | 0.074
COCCNC(=O)Nc1nc2c(s1)-c1c(c(-c3ccc(C)nc3)nn1-c1ccccc1C)CCC2 [Example D-06] | 1.6
Cc1ccc(-c2nn(-c3ccccc3C)c3c2CCCc2nc(NC(N)=O)sc2-3)cn1 [Example D-04] | 0.402
CCNc1ccc(-c2nn(-c3ccncc3C)c3c2CCCc2nc(N)sc2-3)cn1 [Example C-07] | 2.19
CC(=O)Nc1nc2c(s1)-c1c(c(C(=O)Nc3cc[nH]n3)nn1C(C)C)CCC2 [Example E-10] | 1.58
CC(=O)Nc1nc2c(s1)-c1c(c(C(=O)Nc3ccccc3)nn1C(C)C)CCC2 [Example E-09] | 8.45
CNC(=O)c1nn(C(C)C)c2c1CCCc1nc(NC(C)=O)sc1-2 [Example E-01] | 5.18
CNc1ccc(-c2nn(-c3ccccc3C)c3c2CCCc2nc(NC(=O)COC)sc2-3)cn1 [Example B-107, 2-Methoxy-N-[3-(6-methylamino-pyridin-3-yl)-1-o-tolyl-1,4,5,6-tetrahydro-9-thia-1,2,7-triaza-cyclopenta[e]azulen-8-yl]-acetamide] | 0.427
CN(C)C(=O)Nc1nc2c(s1)-c1c(c(-c3ccc(N)nc3)nn1-c1ccccc1F)CCC2 [Example B-97] | 0.175
CCNc1ccc(-c2nn(-c3ccccc3C)c3c2CCCc2nc(NC(=O)COC)sc2-3)cn1 [Example B-100, N-[3-(6-Ethylamino-pyridin-3-yl)-1-o-tolyl-1,4,5,6-tetrahydro-9-thia-1,2,7-triaza-cyclopenta[e]azulen-8-yl]-2-methoxy-acetamide] | 0.286
CNC(=O)Nc1nc2c(s1)-c1c(c(-c3ccc(NC)nc3)nn1C(C)C)CCC2 [Example B-144, 1-[1-Isopropyl-3-(6-methylamino-pyridin-3-yl)-1,4,5,6-tetrahydro-9-thia-1,2,7-triaza-cyclopent[e]azulen-8-yl]-3-methyl-urea] | 0.113
CNC(=O)Nc1nc2c(s1)-c1c(c(-c3ccc(C)nc3)nn1-c1ccccc1C)CCC2 [Example D-05] | 0.358
COC(=O)CCNC(=O)c1nn(C(C)C)c2c1CCCc1nc(NC(C)=O)sc1-2 [Example E-11] | 6.26
COCC(=O)Nc1nc2c(s1)-c1c(c(-c3ccc(N)nc3)nn1-c1ccccc1C)CCC2 [Example B-104, N-[3-(6-Amino-pyridin-3-yl)-1-o-tolyl-1,4,5,6-tetrahydro-9-thia-1,2,7-triaza-cyclopenta[e]azulen-8-yl]-2-methoxy-acetamide] | 0.072
CC(=O)Nc1nc2c(s1)-c1c(c(C(=O)NCCO)nn1C(C)C)CCC2 [Example E-04] | 4.89
COCCNC(=O)c1nn(C(C)C)c2c1CCCc1nc(NC(C)=O)sc1-2 [Example E-07] | 11.4
CCNc1ccc(-c2nn(CCN3CCOCC3)c3c2CCCc2nc(NC(C)=O)sc2-3)cn1 [Example B-124] | 0.994
